# From ChEMBL document CHEMBL1201862, “PubChem BioAssay data set” (2004)
# Activity calls are given as the source filed them.
# Experiments:
# [1] = cells
# [2] = HEp-2 cell cytotoxicity, dose response, cytotoxicity control for RSV inhibitor project, HTS (AID 2410); type: functional; conditions: human respiratory syncytial virus
# [3] = biological target: T1, Carboxy-terminal domain RNA polymerase II polypeptide A small phosphatase 1 (Homo sapiens, UniProt Q9GZU7); assay: inhibitors of CTDSP1, concentration-response testing, biochemical assay, absorbance-based, actives from ultra-high-throughput screening (AID 540297); type: functional
# T1 sequence (Q9GZU7 whole entry): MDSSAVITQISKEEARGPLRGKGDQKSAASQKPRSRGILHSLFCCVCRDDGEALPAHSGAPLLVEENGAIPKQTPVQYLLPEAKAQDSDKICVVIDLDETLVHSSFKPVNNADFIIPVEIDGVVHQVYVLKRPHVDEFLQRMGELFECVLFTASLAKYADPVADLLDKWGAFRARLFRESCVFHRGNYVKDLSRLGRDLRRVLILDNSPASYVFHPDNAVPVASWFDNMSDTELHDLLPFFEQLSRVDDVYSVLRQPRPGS
# [4] = inhibitors of Bluetongue virus cytopathic effect, confirmation, arbovirus, BSR cells (AID 1250); type: functional;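 further: protection from viral cytopathic effect measured as cell viability by ATP luminescence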
# [5] = A cytotoxicity screen of small molecule inhibitors of the PhoP region in Salmonella typhi identified in the primary screen. [Related pubchem assays: 1850, 1864, 1985 ]; type: functional
# [6] = cytotoxicity toward NIH3T3 fibroblasts, dose response, counter-screen, cell-based, ATP luminescence, mouse fibroblasts (AID 2010); type: functional; conditions: NIH3T3;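 further: cells exposed to compound for about 90 hours before reading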
# [7] = Counterscreen for activators of the function of SWI/SNF related, matrix associated, actin dependent regulator of chromatin, subfamily a, member 2 (SMARCA2, BRM): Luminescence-based cell-based high throughput dose response assay to identify non-selective compounds using the VP16 reporter assay.; type: functional
# [8] = biological target: SWI/SNF-related matrix-associated actin-dependent regulator of chromatin subfamily A member 2 (Homo sapiens, UniProt P51531); assay: Luminescence-based cell-based high throughput dose response assay to identify activators of the function of SWI/SNF related, matrix associated, actin dependent regulator of chromatin, subfamily a, member 2 (SMARCA2, BRM).; type: functional
# SWI/SNF-related matrix-associated actin-dependent regulator of chromatin subfamily A member 2, sequence (P51531 whole entry): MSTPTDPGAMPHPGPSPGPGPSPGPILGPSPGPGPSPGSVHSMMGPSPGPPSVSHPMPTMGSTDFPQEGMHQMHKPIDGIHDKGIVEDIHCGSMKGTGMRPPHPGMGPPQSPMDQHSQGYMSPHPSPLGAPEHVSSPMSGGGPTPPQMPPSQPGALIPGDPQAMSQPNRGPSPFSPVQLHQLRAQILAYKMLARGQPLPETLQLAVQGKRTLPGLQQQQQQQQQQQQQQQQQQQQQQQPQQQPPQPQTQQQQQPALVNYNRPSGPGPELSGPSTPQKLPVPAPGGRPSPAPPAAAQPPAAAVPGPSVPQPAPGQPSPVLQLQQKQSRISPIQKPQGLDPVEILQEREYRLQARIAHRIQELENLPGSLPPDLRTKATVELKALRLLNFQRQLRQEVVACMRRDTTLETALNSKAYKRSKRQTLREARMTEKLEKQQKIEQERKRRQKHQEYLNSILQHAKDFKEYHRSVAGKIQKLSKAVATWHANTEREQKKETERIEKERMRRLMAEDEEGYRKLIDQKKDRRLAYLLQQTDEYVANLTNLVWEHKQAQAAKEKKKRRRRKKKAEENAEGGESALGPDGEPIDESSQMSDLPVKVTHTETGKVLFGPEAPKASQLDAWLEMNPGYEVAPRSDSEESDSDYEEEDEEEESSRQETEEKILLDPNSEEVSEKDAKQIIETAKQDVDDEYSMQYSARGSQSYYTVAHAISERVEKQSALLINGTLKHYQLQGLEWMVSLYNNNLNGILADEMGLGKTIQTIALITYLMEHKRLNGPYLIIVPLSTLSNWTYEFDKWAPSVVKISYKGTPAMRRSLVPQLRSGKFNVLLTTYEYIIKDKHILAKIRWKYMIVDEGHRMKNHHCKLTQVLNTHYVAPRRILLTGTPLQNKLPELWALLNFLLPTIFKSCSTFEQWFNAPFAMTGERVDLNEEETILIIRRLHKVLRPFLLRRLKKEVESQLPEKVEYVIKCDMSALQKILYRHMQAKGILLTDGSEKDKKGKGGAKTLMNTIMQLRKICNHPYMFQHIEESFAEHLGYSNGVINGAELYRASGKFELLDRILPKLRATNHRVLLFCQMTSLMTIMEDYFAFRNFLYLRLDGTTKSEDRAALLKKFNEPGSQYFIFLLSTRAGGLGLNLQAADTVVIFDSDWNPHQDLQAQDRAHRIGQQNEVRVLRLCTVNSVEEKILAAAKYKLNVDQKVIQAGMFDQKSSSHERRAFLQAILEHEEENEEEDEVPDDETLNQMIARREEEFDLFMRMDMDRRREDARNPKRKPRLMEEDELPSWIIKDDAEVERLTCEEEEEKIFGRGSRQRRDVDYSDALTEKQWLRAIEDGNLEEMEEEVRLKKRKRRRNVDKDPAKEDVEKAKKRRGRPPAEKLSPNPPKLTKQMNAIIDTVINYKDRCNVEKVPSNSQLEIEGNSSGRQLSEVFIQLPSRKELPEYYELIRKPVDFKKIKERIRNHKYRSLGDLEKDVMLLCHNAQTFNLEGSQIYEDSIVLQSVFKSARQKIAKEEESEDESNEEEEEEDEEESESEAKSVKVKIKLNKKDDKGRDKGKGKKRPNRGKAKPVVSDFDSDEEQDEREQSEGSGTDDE
# [9] = biological target: Protein Rev (Human immunodeficiency virus type 1 group M subtype B (isolate WMJ22)(HIV-1), UniProt P05866); assay: HIV-1 Rev-RRE RNA binding disruptors, dose response, biochemical, protein-RNA interaction (AID 842); set-up: species or system Human immunodeficiency virus 1
# Protein Rev, sequence (P05866 whole entry): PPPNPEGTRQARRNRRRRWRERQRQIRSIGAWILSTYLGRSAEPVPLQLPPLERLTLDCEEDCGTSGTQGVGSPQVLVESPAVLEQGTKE
# [10] = inhibitors of intracellular T. cruzi replication, confirmation, NIH3T3 host cells, beta-gal luminescence (AID 2044); type: functional, cell-based;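 further: intracellular parasites grown in NIH/3T3 mouse fibroblasts as host cells; luminescent beta-galactosidase reporter signal from transgenic T. cruzi replicating inside host cells; inhibitors lower the luminescence signal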
# [11] = biological target: DNA dC->dU-editing enzyme APOBEC-3A (Homo sapiens, UniProt P31941); assay: APOBEC3A DNA deaminase inhibitors, dose response, biochemical (AID 504722); type: functional
# DNA dC->dU-editing enzyme APOBEC-3A, sequence (P31941 whole entry): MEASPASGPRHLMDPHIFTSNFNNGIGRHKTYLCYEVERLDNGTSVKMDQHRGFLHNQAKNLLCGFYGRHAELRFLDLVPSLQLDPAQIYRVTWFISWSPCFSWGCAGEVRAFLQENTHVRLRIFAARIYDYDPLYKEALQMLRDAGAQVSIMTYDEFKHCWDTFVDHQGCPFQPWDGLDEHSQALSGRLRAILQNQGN
# [12] = Counterscreen for IDE inhibitors: Luminescence-based cell-based high throughput dose response assay to identify compounds that are cytotoxic to HEK cells. [Related pubchem assays: 434962 (Primary screen (IDE inhibitors in singlicate)), 449730 (Counterscreen (Cytotoxicity in triplicate)), 435028 (Confirmation (IDE inhibitors in triplicate)) …; type: functional; conditions: HEK293
# [13] = biological target: T2, Voltage-gated N-type calcium channel alpha-1B subunit/Amyloid beta A4 precursor protein-binding family A member 1 (Homo sapiens, UniProt Q00975+Q02410); type: protein assay
# T2 sequence (Q00975 whole entry): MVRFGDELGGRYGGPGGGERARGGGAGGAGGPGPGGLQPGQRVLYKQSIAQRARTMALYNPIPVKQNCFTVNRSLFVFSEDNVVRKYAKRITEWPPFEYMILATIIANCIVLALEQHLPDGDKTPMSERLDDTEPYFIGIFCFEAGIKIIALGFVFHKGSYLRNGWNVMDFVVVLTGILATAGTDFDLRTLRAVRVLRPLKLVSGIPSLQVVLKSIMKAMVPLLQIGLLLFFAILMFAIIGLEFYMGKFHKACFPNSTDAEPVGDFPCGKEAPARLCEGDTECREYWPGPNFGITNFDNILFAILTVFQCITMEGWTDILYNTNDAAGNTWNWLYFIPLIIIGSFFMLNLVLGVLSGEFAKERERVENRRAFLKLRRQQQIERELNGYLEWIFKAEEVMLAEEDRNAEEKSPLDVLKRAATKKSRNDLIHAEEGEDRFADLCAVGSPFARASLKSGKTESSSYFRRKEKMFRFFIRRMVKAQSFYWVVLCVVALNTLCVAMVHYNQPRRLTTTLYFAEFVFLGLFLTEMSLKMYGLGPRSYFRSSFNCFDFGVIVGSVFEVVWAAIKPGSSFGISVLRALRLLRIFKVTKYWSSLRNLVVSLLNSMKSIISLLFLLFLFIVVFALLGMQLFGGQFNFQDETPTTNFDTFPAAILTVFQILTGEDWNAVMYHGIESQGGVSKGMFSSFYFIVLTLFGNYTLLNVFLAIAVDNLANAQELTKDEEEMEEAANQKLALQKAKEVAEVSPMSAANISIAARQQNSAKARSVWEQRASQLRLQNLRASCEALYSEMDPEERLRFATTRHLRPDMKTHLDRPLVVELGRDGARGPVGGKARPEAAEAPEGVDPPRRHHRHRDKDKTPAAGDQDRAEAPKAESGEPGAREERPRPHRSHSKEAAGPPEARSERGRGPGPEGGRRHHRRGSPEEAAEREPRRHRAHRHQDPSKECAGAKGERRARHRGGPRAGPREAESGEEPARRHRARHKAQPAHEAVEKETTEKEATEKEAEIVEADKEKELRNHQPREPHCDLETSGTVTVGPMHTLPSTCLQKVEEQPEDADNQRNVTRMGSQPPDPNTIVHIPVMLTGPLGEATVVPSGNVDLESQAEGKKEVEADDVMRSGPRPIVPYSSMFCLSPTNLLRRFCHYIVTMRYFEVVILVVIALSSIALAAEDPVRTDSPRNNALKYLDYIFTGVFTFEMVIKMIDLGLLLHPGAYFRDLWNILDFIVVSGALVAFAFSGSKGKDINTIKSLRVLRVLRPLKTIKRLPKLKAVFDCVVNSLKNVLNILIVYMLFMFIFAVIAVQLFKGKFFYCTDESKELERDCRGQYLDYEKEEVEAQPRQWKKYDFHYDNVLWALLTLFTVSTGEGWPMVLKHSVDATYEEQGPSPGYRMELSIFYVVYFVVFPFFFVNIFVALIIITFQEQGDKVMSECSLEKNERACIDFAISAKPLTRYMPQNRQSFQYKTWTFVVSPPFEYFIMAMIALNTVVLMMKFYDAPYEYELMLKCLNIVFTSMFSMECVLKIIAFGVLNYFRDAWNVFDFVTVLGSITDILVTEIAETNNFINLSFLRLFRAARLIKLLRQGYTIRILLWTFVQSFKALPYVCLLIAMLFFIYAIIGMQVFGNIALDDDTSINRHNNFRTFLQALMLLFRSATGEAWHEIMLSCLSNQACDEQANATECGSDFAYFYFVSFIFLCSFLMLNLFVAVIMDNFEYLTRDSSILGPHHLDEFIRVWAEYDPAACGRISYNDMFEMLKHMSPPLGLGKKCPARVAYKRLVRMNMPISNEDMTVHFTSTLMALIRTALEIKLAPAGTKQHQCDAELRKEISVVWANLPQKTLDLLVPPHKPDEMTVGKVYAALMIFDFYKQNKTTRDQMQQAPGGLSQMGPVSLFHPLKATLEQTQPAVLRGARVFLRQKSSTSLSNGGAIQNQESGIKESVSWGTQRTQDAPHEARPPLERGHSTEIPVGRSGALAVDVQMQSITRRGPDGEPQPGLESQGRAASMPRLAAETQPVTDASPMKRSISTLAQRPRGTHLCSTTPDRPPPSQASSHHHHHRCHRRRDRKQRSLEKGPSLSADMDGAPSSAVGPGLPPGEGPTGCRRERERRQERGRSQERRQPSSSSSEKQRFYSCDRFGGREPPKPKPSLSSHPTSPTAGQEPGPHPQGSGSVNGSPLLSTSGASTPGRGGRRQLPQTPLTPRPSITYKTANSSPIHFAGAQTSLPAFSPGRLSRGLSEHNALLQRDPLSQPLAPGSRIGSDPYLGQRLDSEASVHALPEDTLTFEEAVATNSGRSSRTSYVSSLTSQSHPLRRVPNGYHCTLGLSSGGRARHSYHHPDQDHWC
# T2 sequence (Q02410 whole entry): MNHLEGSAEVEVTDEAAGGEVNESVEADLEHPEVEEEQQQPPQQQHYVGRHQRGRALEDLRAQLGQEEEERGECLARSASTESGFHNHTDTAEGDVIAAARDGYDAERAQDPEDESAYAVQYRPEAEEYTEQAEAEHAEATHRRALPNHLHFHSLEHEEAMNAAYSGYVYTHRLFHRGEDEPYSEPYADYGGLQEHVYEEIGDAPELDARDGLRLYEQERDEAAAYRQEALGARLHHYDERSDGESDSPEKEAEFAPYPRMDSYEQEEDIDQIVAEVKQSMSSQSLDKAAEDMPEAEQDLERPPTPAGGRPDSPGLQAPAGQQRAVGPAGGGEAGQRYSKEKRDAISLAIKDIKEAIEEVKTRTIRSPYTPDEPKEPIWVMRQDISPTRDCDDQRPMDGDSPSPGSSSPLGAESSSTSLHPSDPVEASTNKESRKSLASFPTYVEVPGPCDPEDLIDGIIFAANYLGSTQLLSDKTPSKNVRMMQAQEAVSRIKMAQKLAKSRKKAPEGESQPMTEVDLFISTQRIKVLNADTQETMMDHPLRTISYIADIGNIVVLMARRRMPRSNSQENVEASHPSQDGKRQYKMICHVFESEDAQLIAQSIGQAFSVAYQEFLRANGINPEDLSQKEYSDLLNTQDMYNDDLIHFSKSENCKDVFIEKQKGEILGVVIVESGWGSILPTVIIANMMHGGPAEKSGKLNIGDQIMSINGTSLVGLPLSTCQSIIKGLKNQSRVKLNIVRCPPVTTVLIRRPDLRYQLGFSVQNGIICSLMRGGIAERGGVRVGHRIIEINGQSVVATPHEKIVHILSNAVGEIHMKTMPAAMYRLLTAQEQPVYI
# [14] = biological target: Glucose-6-phosphate 1-dehydrogenase (Homo sapiens, UniProt P11413); assay: human G6PD enzyme inhibitors, dose response, selectivity assay for P. falciparum G6PD inhibitor project, biochemical, fluorescence (AID 504792); type: functional
# [15] = biological target: T3, Insulin-degrading enzyme (Homo sapiens, UniProt P14735); assay: Dose Response: Fluorescence polarization-based cell-based high throughput dose response assay for inhibitors of insulin-degrading enzyme (IDE). [Related pubchem assays: 434962 (Primary screen (IDE inhibitors in singlicate)), 449730 (Counterscreen (Cytotoxicity in triplicate)), 435028 (Confirmation (IDE inhibitors in triplicate)), 434984 (Summary …; type: functional
# T3 sequence (P14735 whole entry): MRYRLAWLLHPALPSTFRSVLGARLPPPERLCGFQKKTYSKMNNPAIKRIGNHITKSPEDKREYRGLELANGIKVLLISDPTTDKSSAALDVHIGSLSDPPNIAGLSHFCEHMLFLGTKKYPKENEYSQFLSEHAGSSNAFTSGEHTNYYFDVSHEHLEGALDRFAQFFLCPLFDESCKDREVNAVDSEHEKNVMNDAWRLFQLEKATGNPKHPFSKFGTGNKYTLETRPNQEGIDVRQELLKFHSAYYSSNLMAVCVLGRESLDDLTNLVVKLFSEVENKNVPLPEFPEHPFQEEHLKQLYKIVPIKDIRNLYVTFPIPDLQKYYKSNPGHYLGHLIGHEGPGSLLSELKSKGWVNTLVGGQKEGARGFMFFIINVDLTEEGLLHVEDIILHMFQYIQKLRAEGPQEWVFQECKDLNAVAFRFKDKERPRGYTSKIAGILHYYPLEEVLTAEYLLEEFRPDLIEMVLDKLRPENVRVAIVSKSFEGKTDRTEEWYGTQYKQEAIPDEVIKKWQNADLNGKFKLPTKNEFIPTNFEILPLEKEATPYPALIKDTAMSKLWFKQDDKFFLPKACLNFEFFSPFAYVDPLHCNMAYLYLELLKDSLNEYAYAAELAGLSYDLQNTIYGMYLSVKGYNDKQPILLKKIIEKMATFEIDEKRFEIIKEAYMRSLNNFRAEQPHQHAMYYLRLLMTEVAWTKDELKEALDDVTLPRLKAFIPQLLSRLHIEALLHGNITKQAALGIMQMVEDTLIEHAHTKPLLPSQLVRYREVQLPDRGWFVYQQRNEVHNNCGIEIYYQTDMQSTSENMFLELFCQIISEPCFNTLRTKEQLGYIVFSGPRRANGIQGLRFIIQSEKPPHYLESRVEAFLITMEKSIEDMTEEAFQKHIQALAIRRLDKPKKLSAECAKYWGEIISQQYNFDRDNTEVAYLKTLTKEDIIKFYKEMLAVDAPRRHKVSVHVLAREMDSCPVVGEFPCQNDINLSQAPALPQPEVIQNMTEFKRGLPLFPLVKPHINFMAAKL
# [16] = biological target: T2, Voltage-gated N-type calcium channel alpha-1B subunit/Amyloid beta A4 precursor protein-binding family A member 1; type: protein assay; remark: listed apart in the source
# [17] = Luminescence Cell-Based Dose Retest to Confirm Inhibitors of Cancer Stem Cells. [Related pubchem assays (depositor defined):AID2717, AID2721]; type: functional, Homo sapiens; conditions: Homo sapiens
# [18] = biological target: T4, Histone-lysine N-methyltransferase NSD2 (Homo sapiens, UniProt O96028); type: biochemical
# T4 sequence (O96028 whole entry): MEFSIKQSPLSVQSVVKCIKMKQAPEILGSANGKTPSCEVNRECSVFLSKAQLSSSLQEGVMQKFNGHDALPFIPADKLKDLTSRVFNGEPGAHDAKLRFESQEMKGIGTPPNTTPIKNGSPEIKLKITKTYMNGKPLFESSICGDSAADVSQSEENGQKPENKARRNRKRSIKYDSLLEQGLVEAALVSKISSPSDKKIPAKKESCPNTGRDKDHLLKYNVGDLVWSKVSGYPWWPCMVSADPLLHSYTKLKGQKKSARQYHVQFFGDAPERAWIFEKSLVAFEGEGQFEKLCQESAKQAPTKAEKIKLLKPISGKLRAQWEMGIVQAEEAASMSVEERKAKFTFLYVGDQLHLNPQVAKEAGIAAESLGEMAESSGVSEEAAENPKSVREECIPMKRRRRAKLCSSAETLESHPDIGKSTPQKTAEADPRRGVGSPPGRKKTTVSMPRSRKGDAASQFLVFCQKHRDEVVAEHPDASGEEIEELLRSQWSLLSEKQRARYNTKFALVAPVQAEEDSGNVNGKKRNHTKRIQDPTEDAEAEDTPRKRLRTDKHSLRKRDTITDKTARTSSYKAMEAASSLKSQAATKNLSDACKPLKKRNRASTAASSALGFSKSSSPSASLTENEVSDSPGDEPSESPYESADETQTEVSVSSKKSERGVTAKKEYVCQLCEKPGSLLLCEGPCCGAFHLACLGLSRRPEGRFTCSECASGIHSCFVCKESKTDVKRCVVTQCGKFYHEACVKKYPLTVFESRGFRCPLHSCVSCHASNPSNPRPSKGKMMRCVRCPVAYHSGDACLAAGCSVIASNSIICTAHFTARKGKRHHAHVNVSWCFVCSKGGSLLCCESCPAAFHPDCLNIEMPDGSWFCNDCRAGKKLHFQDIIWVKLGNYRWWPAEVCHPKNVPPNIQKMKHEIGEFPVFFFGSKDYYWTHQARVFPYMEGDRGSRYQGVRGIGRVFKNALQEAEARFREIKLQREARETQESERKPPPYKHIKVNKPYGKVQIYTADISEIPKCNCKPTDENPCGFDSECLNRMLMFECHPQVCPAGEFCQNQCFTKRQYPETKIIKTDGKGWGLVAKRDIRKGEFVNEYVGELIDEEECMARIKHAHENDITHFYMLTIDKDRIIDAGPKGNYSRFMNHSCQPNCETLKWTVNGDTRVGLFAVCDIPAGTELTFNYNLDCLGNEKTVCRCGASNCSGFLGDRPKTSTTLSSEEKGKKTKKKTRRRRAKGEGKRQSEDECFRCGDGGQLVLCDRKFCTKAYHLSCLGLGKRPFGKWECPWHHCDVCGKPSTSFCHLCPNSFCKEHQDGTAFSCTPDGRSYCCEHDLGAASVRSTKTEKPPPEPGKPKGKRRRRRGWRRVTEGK
# [19] = biological target: T5, Rac GTPase-activating protein 1 (Homo sapiens, UniProt Q9H0H5); assay: MgcRacGAP GTPase-activating activity inhibitors, confirmation, biochemical, ADP Hunter fluorescence, primary and confirmatory (AID 624330); type: functional
# T5 sequence (Q9H0H5 whole entry): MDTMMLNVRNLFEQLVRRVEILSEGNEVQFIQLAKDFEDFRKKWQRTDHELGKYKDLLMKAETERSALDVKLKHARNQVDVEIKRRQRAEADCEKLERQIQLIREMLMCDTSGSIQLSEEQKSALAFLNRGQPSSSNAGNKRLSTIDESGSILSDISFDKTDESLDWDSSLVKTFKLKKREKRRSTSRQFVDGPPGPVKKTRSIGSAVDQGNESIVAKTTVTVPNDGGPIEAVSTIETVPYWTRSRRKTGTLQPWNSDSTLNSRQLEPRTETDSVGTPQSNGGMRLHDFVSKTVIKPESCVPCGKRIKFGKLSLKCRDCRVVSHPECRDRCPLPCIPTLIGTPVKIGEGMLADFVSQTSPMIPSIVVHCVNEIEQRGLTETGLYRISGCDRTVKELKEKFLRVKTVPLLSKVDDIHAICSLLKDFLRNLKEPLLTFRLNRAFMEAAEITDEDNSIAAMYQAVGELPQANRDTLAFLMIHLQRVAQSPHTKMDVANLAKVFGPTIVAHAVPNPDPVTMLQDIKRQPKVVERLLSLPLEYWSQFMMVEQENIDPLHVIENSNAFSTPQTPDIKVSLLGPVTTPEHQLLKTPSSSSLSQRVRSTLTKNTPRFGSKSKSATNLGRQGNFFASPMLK
# [20] = biological target: T6, Long-chain-fatty-acid--AMP ligase FadD28 (Mycobacterium tuberculosis, UniProt P9WQ59); assay: Fluorescence polarization aasay to screen for inhibitors that compete for the binding of FadD28 to a bisubstrate Measured in Biochemical System Using Plate Reader - 2147-01_Inhibitor_Dose_CherryPick_Activity.; type: functional, Mycobacterium tuberculosis H37Rv
# T6 sequence (P9WQ59 whole entry): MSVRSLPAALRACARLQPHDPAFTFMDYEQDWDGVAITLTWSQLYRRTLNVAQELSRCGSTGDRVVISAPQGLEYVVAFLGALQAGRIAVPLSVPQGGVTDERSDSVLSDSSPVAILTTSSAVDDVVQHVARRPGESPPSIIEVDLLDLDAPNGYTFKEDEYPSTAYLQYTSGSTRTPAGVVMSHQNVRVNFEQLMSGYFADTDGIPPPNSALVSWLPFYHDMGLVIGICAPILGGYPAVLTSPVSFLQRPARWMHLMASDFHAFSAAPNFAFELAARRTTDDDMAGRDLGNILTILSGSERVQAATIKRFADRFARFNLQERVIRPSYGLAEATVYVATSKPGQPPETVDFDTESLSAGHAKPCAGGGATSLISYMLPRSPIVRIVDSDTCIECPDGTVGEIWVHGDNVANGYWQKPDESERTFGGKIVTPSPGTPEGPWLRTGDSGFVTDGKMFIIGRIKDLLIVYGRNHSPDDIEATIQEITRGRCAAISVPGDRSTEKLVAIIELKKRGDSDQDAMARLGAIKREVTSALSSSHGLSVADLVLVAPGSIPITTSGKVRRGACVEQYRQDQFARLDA
# [21] = biological target: Genome polyprotein (dengue virus type 2, UniProt P29990); assay: Dengue-2 NS5 methyltransferase inhibitors, primary screen, biochemical, confirmation dose response (AID 588689); type: functional
compound,measurement,setting,value
CC(=N)/C(C#N)=C(/O)COc1ccc(Cl)cc1Cl,IC50,[1],49.6 µM (active)
same,CC50,[2],> 50 µM (active)
O=C(COC(=O)c1ccc(NS(=O)(=O)c2cccs2)cc1)Nc1nc2c(F)c(F)c(F)cc2s1,IC50,[3],4.05 µM (active)
same,IC50,[4],46.2 µM (active)
O=C(Cc1ccc(Br)cc1)c1ccc(O)cc1O,EC50,[5],> 50 µM (active)
Cc1nc(Nc2ccncc2)c2oc3ccccc3c2n1,EC50,[6],> 60 µM (not active)
same,EC50,[7],> 91.2 µM (inactive)
same,EC50,[8],> 91.2 µM (inactive)
same,IC50,[9],> 79.4 µM (not active)
same,EC50,[10],2.47 µM (active)
COc1ccccc1NC1=NC(c2ccc(Cl)cc2)N=C(N)N1 (stereo not drawn),IC50,[9],> 79.4 µM (not active)
COc1cccc(CNS(=O)(=O)c2ccc3c(c2)NC(=O)CS3)c1,EC50,[5],> 50 µM (active)
Cc1cc(C)c2c(=O)n(CC(=O)Nc3ccc(Br)c(C)c3)sc2n1,IC50,[11],> 100 µM (inactive)
same,IC50,[12],17.5 µM (not active)
same,IC50,[13],> 50 µM (inactive)
same,IC50,[14],49.2 µM (inactive)
same,IC50,[15],4.54 µM (active)
same,IC50,[16],> 56.8 µM (not active)
N#C/C(=C/c1ccc(O)c(O)c1)C(=O)NCc1ccc(Cl)cc1,IC50,[12],35.9 µM (not active)
same,IC50,[15],11.6 µM (not active)
same,AC50,[17],6.32 µM (active)
same,AC50,[18],5.16 µM (active)
same,IC50,[19],34.5 µM (active)
O=C(O)CC/C(=C\c1ccc(N2CCCC2)c([N+](=O)[O-])c1)c1nc2ccccc2s1,AC50,[20],> 100 µM (inactive)
same,IC50,[4],27.8 µM (active)
same,IC50,[21],43.1 µM (active)
same,CC50,[2],33.3 µM (active)
COc1ccc(OC)c(-n2c(SCC(=O)NCc3ccco3)nnc2-c2c[nH]c3ccccc23)c1,IC50,[1],> 50 µM (active)
